We go through three molecules from patent US20100166846A1 (priority 2008, published 2010).

The conditions of data set [1]: rat liver. The source says:
The tissue from the control animals (water) served as the 100% of the toxin remaining in the tissue. The animals receiving: • a.

For data set [2] the following is noted: humans, reference (7); cited from earlier work.

SMILES strings stand for the structures. Where two headings read alike, the source gives them in different places.

In the case of `CN1C(=O)CN=C(c2ccccc2)c2cc(Cl)ccc21` [valium], where the note is “dog, in vivo”, the “tolerability in the animal” value is listed as “neither of which was tolerated”. With `N[C@@H](CCC(=O)N[C@@H](CS)C(=O)NCC(=O)O)C(=O)O` [Plain glutathione, glutathione], the removal of toxin in data set [1] (CO-60, intravenous administration) is on record as 70%; in data set [1] (CO-60, oral administration), 10%. Moreover, the “absorption after oral ingestion” value in data set [2] was “not absorbed”.

On to `COc1ccccc1OCC(O)COC(N)=O` (centres unmarked) [methocarbolmol], for which, for the setting “canine with myoclonus, initial symptom management”, the “tolerability in the animal” value was “neither of which was tolerated”.
